# Measurements reported in patent publication US8647865B2, “Promiscuous PAP CD4 T cell epitopes” (Dendreon Corporation, priority 2006, dated 2014).
# Assays:
# Assay type in all cases: cell-based, human
# [1] = tested on: CD4+ T-cell clone (PAPc66); assay: MHC Class II blocking assay with autologous EBV-LcL, IFNγ ELISA; conditions: peptide at 2 μg/mL, 48 hours
# Description: FIG. 2. PAPc661 is MHC class II restricted. PAPc66 was stimulated with autologous EBV-LcL at 2×10^5 cells/mL and PAP257-271 at 2 μg/mL in the presence of MHC Class II blocking antibodies. The assay was set up in 96 well round bottom plates in complete RPMI media +10% FBS with anti-HLA-DR ♦ (Dendreon) and anti-HLA-DP ▪ or anti HLA-DQ ▴ (Leinco Technologies, Inc., St. Louis, […].) at the concentrations shown. Anti-HLA-A2 antibody (∘) was used as a negative control. PAPc66 was added to all wells at 1×10^5 cells/well and the assay was incubated for 48 hours at 37° C. and 5% CO2. After the incubation, supernatants were harvested and tested for IFNγ by ELISA. IFNγ was not detected for conditions without peptide.
# All assays were set up in triplicate in 96-well round bottom plates with antigen or peptide in cRPMI 1640+10% FBS (Fetal Bovine Serum (Invitrogen, Carlsbad, Calif.)), T cell clones at 1×10^5 cells/well and antigen presenting cells at 2×10^5 cells/well. Autologous EBV-LcL were used for antigen presenting cells in specificity assays and assays conducted to show peptide promiscuity using the HLA-DRB1 EBV-LcLs. All assays were incubated for 48 hours at 37° C. with 5% CO2. […]
# (§1) IFN[…] production was measured using anti-human IFNγ antibody pairs for ELISA (BD Pharmingen, San Diego, Calif.). […] 2M HCl was added to stop the reaction and plates were read for absorbance at 492 nm on a spectrophotometer. […]
# [2] = tested on: CD4+ T-cell clone (PAPc66); assay: Antigen specificity of T cell clone PAPc66 with autologous EBV-LcL, IFNγ ELISA
# Description: FIG. 1. T cell clone PAPc66 recognizes a naturally processed epitope from PAP. (A) PAP fusion proteins PA2024, CHOPA2024 and hPAPGM and PAP from a baculoviral expression system (iPAP) and mammalian expression system (CHOPAP) were titrated with autologous EBV-LcL and PAPc66. Assay was set up in 96 well round bottom plates with 1×10^5 cells/well of PAPc66, 2×10^5 cells/well EBV-LcL and antigens at 50 μg/mL (black bars), 25 μg/mL (stripe bars) and 12.5 μg/mL (dot bars) in complete RPMI media with 10% FBS. Assay was incubated for 48 hours at 37° C. with 5% CO2 at which time supernatants were harvested and tested for IFNγ by ELISA. (B) To map the specific PAP peptide, chemically synthesized peptides from the PAP sequence were used. These 94 peptides were 15 amino acids in length overlapping by 11 amino acids and were individually tested for the ability to stimulate PAPc66 using autologous EBV-LcL and each peptide at 2 μg/mL in the assay. The assay was set up as in (A) and supernatants were tested for IFNγ by ELISA. […] Supernatants were analyzed for peptide specific IFNγ production by ELISA. […]
# as §1
# [3] = tested on: CD4+ T-cell clone (PAPc66); assay: Peptide promiscuity assay: HLA-DRβ1 homozygous EBV-LcL lines present the peptide to PAPc66, IFNγ and granzyme B measured by ELISA
# From the text: FIG. 3. PAP257-271 is a promiscuous MHC class II PAP epitope recognized by the T cell clone PAPc66. (A) The peptide, PAP257-271 (RLQGGVLVNNEILNHM; SEQ ID NO:1), recognized by a CD4+ T-cell clone (PAPc66) in the context of MHC class II, is capable of inducing T-cell activation when presented by lymphoblastoid cell lines representing 9 different HLA-DR serological families (β chain; DR1, DR4, DR7, DR8, DR11, DR12, DR13, DR14, DR15) having over 15 distinct HLA-DRβ1 alleles. […] The assay was set up in 96 well round bottom plates with PAPc66 at 1×10^5 cells/well, PAP257-271 at 2 μg/mL and 2×10^5 EBV-LcL per well in complete RPMI+10% FBS. Each HLA-DR[…]EBV-LcL line, homozygous for the HLA-DRβ1 allele shown, was tested for the ability to present PAP257-271 to PAPc66. An irrelevant PAP peptide and no peptide control were also included. After 48-hour incubation at 37° C. and 5% CO2, supernatants were tested for IFNγ and granzyme B (B) by ELISA. Results are shown with background (no peptide) for each EBV-LcL line and PAPc66 subtracted.
# HLA-DRβ1 EBV-LcL lines were purchased from the European Collection of Cell Cultures originating from the 12th International Histocompatibility Workshop (IHW) held in Strasbourg, France. HLA-DR EBV-transformed lymphoblastoid cells were homozygous for the HLA-DRβ1 allele (Table I). EBV-LcL were also generated from various subject PBMC using supernatant from the B95-8 cell line (ATCC, Manassas, Va.) for the expansion and testing of autologous T cell clones.
# All assays were set up in triplicate in 96-well round bottom plates with antigen or peptide in cRPMI 1640+10% FBS (Fetal Bovine Serum (Invitrogen, Carlsbad, Calif.)), T cell clones at 1×10^5 cells/well and antigen presenting cells at 2×10^5 cells/well. […]
# as §1
sequence,measurement,setting,value
"RLQGGVLVNEILNHM (residues 257-271 of human prostatic acid phosphatase (PAP), PAP epitope 257-271, Peptide #65, PAP-257-271) [PAP257-271, peptide corresponding to residues 257-271 of the human PAP protein]","MHC class II restriction of presentation (blocking antibodies anti-HLA-DR, -DP, -DQ)",[1],presented both in the context of HLA-DR and HLA-DQ
same,nature of the epitope recognized by PAPc66 (summary of FIGS. 1-3),[2],"naturally processed, MHC class II-restricted promiscuous epitope"
same,cytokine production by clone PAPc66 upon activation with the presented peptide,[3]; IFNγ and granzyme B ELISA of supernatants,produce IFNγ and granzyme B upon activation
same,number of distinct HLA-DRβ1 alleles presenting the peptide with T-cell activation,"[3]; peptide at 2 μg/mL, 48 hours, EBV-LcL homozygous for the HLA-DRβ1 allele",over 15
same,number of different HLA-DR serological families whose lymphoblastoid cell lines present the peptide and induce T-cell activation,"[3]; peptide at 2 μg/mL, 48 hours, PAPc66 1×10^5 cells/well, 2×10^5 EBV-LcL per well",9
